Results reported in patent publication US20150197497A1, “SELECTIVE INHIBITORS OF HISTONE DEACETYLASE ISOFORM 6 AND METHODS THEREOF” (DANA-FARBER CANCER INSTITUTE, INC., priority 2011, published 2015).

Tests used:
HDAC1 = biological target: T1, HDAC1 (Homo sapiens, UniProt Q13547); assay: In vitro HDAC enzyme inhibition assay, HDAC1; type: biochemical; settings: for HDAC1/HDAC6 in vitro selectivity: ratio of IC50 for HDAC1 relative to that of HDAC6; for IC50: recombinant full-length HDAC1, substrate MAZ1600 21 μM
T1 construct: Recombinant, full-length HDAC protein (BPS Biosciences) was incubated with fluorophore conjugated substrate; purchased BPS Biosciences
Procedure: (§1) In vitro Histone Deacetylase enzyme assays were performed using Class I (isoforms: HDAC1, HDAC2, HDAC3 and HDAC8), class IIa (isoforms: HDAC4, HDAC5, HDAC7 and HDAC9) and class IIb (isoform HDAC6).
(§2) HDAC activities were determined in vitro with an optimized homogenous assay performed in a 384-well plate. Recombinant, full-length HDAC protein (BPS Biosciences) was incubated with fluorophore conjugated substrate, MAZ1600 and MAZ1675, at Km=[S]. […] Reactions were performed in assay buffer (50 mM HEPES, 100 mM KCl, 0.001% Tween-20, 0.05% BSA, 200 μM tris(2-carboxyethyl)phosphine (TCEP), pH 7.4) and followed for fluorogenic release of 7-amino-4-methylcoumarin from substrate upon deacetylase and trypsin enzymatic activity. Fluorescence measurements were obtained every five minutes using a multilabel plate reader and plate-stacker (Envision; Perkin-Elmer). Each plate was analyzed by plate repeat, and the first derivative within the linear range was imported into analytical software (Spotfire DecisionSite and GraphPad Prism). Replicate experimental data from incubations with inhibitor were normalized to controls.

HDAC3 = biological target: T2, HDAC3 (Homo sapiens, UniProt O15379); assay: In vitro HDAC enzyme inhibition assay, HDAC3; type: biochemical; settings: for HDAC3/HDAC6 in vitro selectivity: ratio of IC50 for HDAC3 relative to that of HDAC6; for IC50: recombinant full-length HDAC3, substrate MAZ1600 9 μM
T2 construct: Recombinant, full-length HDAC protein (BPS Biosciences) was incubated with fluorophore conjugated substrate; purchased BPS Biosciences
Procedure: as §1, §2

acetylated histones = assay: High-content image analysis of induction of acetylated histones in A549 cells; settings: for EC50: Homo sapiens, A549, 8 h, read-out: EC50 for half-maximal induction of acetylated histones (AcHistone)
Procedure: Cells were treated with each test HDACi compound with an automated pin transfer instrument (Janus, Perkin Elmer) and incubated for 8 hours. […] Fixation solution was aspirated and 90 μL of washing solution (0.1% Triton X-100 in PBS) was added prior to 10 minute incubation at 4° C. Washing solution was aspirated and cells were incubated at 4° C. for about 1 hour in blocking solution (0.1% Triton X-100+2% BSA in PBS). Washing solution was aspirated, and cells were incubated for about 1 hour at 4° C. in primary antibody for acetylated-tubulin (Sigma T7451) and acetylated-histone (Cell Signaling #9441L) at a 1:1000 dilution in blocking solution. Primary antibody solution was aspirated, and cells were washed three times in 90 μL of washing solution. […] Secondary antibody and nuclear staining solution was aspirated and cells were washed three times in 90 μL of washing solution. After the third wash, 50 μL of PBS was added to each well. Image acquisition was done on a high content imaging microscope (ImageXpress Micro, Molecular Devices), and image analysis (MetaXpress, Molecular Devices) was performed to obtain average acetylated-tubulin and acetylated-histone signal per cell based on treatment. Replicate experimental data from incubations with inhibitor were normalized to DMSO controls.

HDAC4 = biological target: T3, HDAC4 (Homo sapiens, UniProt P56524); assay: In vitro HDAC enzyme inhibition assay, HDAC4; type: biochemical; settings: for HDAC4/HDAC6 in vitro selectivity: ratio of IC50 for HDAC4 relative to that of HDAC6; for IC50: recombinant full-length HDAC4, substrate MAZ1675 10 μM; for selectivity toward HDAC6 compared to HDAC4 (in words): tested in vitro
T3 construct: Recombinant, full-length HDAC protein (BPS Biosciences) was incubated with fluorophore conjugated substrate; purchased BPS Biosciences
Procedure: as §1, §2

HDAC8 = biological target: T4, HDAC8 (Homo sapiens, UniProt Q9BY41); assay: In vitro HDAC enzyme inhibition assay, HDAC8; type: biochemical; settings: for HDAC8/HDAC6 in vitro selectivity: ratio of IC50 for HDAC8 relative to that of HDAC6; for IC50: recombinant full-length HDAC8, substrate MAZ1675 282 μM
T4 construct: Recombinant, full-length HDAC protein (BPS Biosciences) was incubated with fluorophore conjugated substrate; purchased BPS Biosciences
T4 sequence (Q9BY41 1-377): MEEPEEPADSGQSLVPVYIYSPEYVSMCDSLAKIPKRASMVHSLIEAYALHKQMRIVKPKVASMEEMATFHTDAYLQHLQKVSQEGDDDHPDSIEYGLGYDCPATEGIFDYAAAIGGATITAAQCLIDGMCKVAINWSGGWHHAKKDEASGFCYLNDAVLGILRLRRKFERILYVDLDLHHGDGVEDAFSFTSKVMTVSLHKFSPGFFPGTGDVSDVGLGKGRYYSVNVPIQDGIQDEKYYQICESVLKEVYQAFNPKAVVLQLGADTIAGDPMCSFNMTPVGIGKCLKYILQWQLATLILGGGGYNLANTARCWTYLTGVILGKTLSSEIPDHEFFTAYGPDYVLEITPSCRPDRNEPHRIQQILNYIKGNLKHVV
Procedure: as §1, §2

HDAC9 = biological target: T5, HDAC9 (Homo sapiens, UniProt Q9UKV0); assay: In vitro HDAC enzyme inhibition assay, HDAC9; type: biochemical; settings: for HDAC9/HDAC6 in vitro selectivity: ratio of IC50 for HDAC9 relative to that of HDAC6; for IC50: recombinant full-length HDAC9, substrate MAZ1675 26 μM; for selectivity toward HDAC6 compared to HDAC9 (in words): tested in vitro
T5 construct: Recombinant, full-length HDAC protein (BPS Biosciences) was incubated with fluorophore conjugated substrate; purchased BPS Biosciences
Procedure: as §1, §2

HDAC6 = biological target: T6, HDAC6 (Homo sapiens, UniProt Q9UBN7); assay: In vitro HDAC enzyme inhibition assay, HDAC6; type: biochemical; settings: recombinant full-length HDAC6, substrate MAZ1600 9 μM
T6 construct: Recombinant, full-length HDAC protein (BPS Biosciences) was incubated with fluorophore conjugated substrate; purchased BPS Biosciences
T6 sequence (Q9UBN7 1-1215): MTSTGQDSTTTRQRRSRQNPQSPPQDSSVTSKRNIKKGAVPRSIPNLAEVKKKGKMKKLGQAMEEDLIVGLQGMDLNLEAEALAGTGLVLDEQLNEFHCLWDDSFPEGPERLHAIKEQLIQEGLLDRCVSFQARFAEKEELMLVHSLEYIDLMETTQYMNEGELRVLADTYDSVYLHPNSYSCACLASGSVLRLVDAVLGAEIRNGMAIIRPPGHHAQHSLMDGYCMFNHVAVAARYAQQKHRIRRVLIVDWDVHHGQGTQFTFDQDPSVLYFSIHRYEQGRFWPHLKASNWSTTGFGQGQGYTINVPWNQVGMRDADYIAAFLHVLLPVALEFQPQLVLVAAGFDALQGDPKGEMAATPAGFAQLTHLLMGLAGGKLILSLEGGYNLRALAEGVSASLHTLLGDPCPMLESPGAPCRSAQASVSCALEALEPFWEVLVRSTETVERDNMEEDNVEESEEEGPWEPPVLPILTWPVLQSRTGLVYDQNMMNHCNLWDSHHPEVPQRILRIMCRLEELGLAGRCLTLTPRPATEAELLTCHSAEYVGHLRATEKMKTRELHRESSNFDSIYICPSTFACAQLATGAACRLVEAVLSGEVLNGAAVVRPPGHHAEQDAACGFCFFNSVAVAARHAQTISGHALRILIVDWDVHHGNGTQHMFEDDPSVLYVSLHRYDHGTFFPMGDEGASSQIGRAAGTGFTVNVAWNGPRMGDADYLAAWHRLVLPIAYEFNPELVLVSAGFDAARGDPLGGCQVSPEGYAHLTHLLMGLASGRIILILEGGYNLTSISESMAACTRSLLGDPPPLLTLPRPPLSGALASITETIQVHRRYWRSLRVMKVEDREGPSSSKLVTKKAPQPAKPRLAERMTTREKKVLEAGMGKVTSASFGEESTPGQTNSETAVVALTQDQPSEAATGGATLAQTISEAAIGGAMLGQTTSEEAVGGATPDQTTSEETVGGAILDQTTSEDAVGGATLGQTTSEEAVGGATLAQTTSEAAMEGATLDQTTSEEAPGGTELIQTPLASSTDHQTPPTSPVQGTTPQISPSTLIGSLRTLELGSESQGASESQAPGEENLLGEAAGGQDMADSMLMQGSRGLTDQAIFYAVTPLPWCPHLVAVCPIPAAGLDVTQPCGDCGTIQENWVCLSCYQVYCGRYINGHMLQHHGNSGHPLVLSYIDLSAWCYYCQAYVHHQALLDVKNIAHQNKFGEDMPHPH
Procedure: as §1, §2

HDAC5 = biological target: T7, HDAC5 (Homo sapiens, UniProt Q9UQL6); assay: In vitro HDAC enzyme inhibition assay, HDAC5; type: biochemical; settings: for HDAC5/HDAC6 in vitro selectivity: ratio of IC50 for HDAC5 relative to that of HDAC6; for IC50: recombinant full-length HDAC5, substrate MAZ1675 40 μM; for selectivity toward HDAC6 compared to HDAC5 (in words): tested in vitro
T7 construct: Recombinant, full-length HDAC protein (BPS Biosciences) was incubated with fluorophore conjugated substrate; purchased BPS Biosciences
Procedure: as §1, §2

acetylated tubulin = assay: High-content image analysis of induction of acetylated tubulin in A549 cells; settings: for EC50: Homo sapiens, A549, 8 h, read-out: EC50 for half-maximal induction of acetylated tubulin (AcTubulin); for AcHistone/AcTubulin in cell selectivity toward HDAC6: ratio of EC50 acetylated histone to EC50 acetylated tubulin

T5 sequence (Q9UKV0 whole entry): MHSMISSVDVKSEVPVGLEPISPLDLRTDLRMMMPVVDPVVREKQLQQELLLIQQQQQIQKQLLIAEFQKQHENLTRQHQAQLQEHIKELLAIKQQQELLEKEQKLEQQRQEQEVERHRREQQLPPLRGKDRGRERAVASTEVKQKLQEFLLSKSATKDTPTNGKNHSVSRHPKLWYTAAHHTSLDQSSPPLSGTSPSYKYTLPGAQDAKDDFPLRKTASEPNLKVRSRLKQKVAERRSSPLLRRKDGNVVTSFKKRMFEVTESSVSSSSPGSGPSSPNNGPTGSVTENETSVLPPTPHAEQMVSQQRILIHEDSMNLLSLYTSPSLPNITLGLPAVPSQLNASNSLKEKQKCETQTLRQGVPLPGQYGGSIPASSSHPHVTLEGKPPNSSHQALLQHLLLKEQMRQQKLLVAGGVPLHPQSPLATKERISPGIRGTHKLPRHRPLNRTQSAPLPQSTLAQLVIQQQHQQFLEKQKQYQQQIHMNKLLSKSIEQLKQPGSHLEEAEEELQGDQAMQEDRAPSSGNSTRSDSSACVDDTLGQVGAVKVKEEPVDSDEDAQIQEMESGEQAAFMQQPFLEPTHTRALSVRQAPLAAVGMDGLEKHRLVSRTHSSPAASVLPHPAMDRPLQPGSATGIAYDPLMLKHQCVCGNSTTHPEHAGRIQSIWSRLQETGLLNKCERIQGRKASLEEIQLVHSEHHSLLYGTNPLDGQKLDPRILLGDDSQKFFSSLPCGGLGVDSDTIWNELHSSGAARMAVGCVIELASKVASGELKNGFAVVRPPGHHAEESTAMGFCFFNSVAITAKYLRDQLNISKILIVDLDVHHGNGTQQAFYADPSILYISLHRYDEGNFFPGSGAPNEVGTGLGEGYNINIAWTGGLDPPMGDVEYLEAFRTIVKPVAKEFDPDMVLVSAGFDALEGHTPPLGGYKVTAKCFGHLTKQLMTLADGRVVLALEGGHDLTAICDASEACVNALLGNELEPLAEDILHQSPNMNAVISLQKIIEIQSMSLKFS
T3 sequence (P56524 whole entry): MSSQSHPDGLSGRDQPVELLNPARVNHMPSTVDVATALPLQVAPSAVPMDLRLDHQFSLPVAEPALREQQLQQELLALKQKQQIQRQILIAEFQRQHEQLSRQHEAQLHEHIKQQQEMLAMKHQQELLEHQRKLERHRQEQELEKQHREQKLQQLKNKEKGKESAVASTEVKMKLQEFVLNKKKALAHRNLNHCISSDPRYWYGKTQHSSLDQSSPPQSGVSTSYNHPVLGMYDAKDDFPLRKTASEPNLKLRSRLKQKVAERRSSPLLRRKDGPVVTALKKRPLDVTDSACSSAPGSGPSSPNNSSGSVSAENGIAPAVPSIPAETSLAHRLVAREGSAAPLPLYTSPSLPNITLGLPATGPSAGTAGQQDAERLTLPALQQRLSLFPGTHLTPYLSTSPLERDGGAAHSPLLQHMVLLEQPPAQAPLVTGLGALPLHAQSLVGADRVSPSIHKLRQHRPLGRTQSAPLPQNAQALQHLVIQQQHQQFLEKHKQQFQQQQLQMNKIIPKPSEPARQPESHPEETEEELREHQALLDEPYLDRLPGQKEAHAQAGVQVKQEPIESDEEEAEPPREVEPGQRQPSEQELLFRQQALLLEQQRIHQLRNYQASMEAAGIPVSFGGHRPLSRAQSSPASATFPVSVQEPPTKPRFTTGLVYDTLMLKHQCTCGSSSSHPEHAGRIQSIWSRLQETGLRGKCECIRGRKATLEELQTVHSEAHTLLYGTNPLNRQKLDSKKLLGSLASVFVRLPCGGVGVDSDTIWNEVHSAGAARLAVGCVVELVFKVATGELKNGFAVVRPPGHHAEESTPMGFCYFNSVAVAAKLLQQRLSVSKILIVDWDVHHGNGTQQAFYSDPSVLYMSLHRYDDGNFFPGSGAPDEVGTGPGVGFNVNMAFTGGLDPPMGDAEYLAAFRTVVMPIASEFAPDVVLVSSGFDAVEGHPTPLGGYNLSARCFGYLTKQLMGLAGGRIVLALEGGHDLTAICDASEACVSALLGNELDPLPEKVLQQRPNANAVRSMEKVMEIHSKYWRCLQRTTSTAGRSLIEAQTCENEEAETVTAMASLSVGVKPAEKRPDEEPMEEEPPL
T1 sequence (Q13547 whole entry): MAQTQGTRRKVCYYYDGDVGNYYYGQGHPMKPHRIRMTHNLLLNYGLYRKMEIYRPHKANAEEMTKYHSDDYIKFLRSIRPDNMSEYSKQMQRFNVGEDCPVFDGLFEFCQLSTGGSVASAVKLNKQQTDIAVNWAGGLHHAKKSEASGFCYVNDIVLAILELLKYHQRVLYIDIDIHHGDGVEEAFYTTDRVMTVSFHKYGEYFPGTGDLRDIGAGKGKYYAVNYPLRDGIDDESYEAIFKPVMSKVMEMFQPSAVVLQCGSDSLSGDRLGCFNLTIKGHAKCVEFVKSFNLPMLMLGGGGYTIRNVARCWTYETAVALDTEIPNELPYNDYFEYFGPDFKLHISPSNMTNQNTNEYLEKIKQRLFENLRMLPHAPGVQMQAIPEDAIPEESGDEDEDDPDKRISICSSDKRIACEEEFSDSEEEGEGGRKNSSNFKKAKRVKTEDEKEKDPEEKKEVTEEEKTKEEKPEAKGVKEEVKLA
T7 sequence (Q9UQL6 whole entry): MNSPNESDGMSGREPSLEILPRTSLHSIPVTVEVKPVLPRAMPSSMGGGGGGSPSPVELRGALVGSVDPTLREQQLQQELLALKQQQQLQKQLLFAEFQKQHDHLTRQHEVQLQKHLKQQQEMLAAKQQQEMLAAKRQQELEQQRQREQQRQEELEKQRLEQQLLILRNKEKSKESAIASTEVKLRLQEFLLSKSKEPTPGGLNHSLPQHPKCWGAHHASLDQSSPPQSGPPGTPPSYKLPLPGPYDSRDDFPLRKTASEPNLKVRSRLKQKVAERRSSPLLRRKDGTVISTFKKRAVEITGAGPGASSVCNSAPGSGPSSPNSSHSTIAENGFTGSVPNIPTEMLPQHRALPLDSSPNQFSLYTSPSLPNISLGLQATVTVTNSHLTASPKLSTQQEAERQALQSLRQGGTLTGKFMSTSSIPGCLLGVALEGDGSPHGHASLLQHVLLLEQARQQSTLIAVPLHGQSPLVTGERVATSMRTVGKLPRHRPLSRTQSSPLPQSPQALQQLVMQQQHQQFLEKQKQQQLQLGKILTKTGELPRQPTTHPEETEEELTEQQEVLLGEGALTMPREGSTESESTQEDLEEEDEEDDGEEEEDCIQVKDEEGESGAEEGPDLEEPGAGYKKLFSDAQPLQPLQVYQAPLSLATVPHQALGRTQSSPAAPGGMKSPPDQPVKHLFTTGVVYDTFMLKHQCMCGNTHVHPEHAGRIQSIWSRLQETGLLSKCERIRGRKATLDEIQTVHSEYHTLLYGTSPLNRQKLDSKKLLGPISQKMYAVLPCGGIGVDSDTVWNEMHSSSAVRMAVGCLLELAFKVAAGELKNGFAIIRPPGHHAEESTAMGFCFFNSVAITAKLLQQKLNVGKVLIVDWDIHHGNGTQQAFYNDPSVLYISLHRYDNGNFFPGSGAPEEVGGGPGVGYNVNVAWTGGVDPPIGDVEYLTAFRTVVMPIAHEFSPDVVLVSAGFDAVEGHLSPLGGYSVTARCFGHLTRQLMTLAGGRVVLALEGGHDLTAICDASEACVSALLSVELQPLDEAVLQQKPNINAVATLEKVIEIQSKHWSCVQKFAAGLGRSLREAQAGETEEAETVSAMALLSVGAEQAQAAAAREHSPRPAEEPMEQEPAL
T2 sequence (O15379 whole entry): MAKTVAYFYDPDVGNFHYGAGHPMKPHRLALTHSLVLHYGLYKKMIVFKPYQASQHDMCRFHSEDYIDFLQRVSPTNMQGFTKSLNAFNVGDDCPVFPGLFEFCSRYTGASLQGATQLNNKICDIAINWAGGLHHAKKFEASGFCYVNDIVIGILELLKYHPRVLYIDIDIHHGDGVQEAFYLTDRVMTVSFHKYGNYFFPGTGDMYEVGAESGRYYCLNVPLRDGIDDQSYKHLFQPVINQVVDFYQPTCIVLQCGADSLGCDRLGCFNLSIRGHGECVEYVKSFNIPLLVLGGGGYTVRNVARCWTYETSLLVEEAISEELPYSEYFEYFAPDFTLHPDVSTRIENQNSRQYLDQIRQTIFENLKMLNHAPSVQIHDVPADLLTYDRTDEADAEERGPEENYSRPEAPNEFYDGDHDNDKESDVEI
T2 sequence (Q9Y618 395-489 partner limits assumed): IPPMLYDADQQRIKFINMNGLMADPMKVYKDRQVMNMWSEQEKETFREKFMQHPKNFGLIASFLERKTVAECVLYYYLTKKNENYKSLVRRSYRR

HDAC1/HDAC6 in vitro selectivity (HDAC1)	IC50 (HDAC1)	HDAC3/HDAC6 in vitro selectivity (HDAC3)	IC50 (HDAC3)	EC50 (acetylated histones)	HDAC4/HDAC6 in vitro selectivity (HDAC4)	IC50 (HDAC4)	HDAC8/HDAC6 in vitro selectivity (HDAC8)	IC50 (HDAC8)	HDAC9/HDAC6 in vitro selectivity (HDAC9)	IC50 (HDAC9)	IC50 (HDAC6)	HDAC5/HDAC6 in vitro selectivity (HDAC5)	IC50 (HDAC5)	EC50 (acetylated tubulin)	SMILES	AcHistone/AcTubulin in cell selectivity toward HDAC6 (acetylated tubulin; A549 cells)	selectivity toward HDAC6 compared to HDAC4 (in words) (HDAC4)	selectivity toward HDAC6 compared to HDAC9 (in words) (HDAC9)	selectivity toward HDAC6 compared to HDAC5 (in words) (HDAC5)	other results
343	398 nM	1096	1270 nM	14900 nM	1188	1380 nM	1240	1440 nM	943	1090 nM	1.16 nM	246	285 nM	275 nM	O=C(NO)c1ccc(Cn2c(C(F)(F)F)nc3cc(Cl)ccc32)cc1 [A4, 4-((5-chloro-2-(trifluoromethyl)-1H-benzo[d]imidazol-1-yl)methyl)-N-hydroxybenzamide]	54.11				levels of acetylated histone, dose response (in words) (acetylated histones; A549 cells, FIG. 11): absence of the dose-dependent response; levels of acetylated tubulin, dose response (in words) (acetylated tubulin; A549 cells, FIG. 11): dose-dependent increase
1725	28.7 nM	3936	65.6 nM	1970 nM	93190	1550 nM	18285	305 nM	61100	1020 nM	0.0167 nM	25649	427 nM	174 nM	O=C(NO)c1ccc(Cn2cnc3cc(Br)ccc32)cc1 [A11, 4-((5-bromo-1H-benzo[d]imidazol-1-yl)methyl)-N-hydroxybenzamide]	11.31	exceptionally high selectivity (Inhibitors with in vitro selectivity values for HDAC6 of at least 30,000 are considered to have exceptionally high selectivity toward HDAC6)	exceptionally high selectivity (Inhibitors with in vitro selectivity values for HDAC6 of at least 30,000 are considered to have exceptionally high selectivity toward HDAC6)		
1224	31.5 nM	1236	31.8 nM	1540 nM	60006	1540 nM	21403	551 nM	47920	1230 nM	0.0257 nM	57925	1490 nM	154 nM	COc1ccc2c(c1)[nH]c(=O)n2Cc1ccc(C(=O)NO)cc1 [B7, N-hydroxy-4-((5-methoxy-2-oxo-2,3-dihydro-1H-benzo[d]imidazol-1-yl)methyl)benzamide]	10.013	exceptionally high selectivity (Inhibitors with in vitro selectivity values for HDAC6 of at least 30,000 are considered to have exceptionally high selectivity toward HDAC6)	exceptionally high selectivity (Inhibitors with in vitro selectivity values for HDAC6 of at least 30,000 are considered to have exceptionally high selectivity toward HDAC6)	exceptionally high selectivity (Inhibitors with in vitro selectivity values for HDAC6 of at least 30,000 are considered to have exceptionally high selectivity toward HDAC6)	
508	10.4 nM	495	10.1 nM	846 nM	57687	1180 nM	12655	259 nM	39480	809 nM	0.0205 nM	39409	808 nM	132 nM	O=C(NO)c1ccc(Cn2c(=O)[nH]c3cc(Br)ccc32)cc1 [B5, 4-((5-bromo-2-oxo-2,3-dihydro-1H-benzo[d]imidazol-1-yl)methyl)-N-hydroxybenzamide]	6.398	exceptionally high selectivity (Inhibitors with in vitro selectivity values for HDAC6 of at least 30,000 are considered to have exceptionally high selectivity toward HDAC6)	exceptionally high selectivity (Inhibitors with in vitro selectivity values for HDAC6 of at least 30,000 are considered to have exceptionally high selectivity toward HDAC6)	exceptionally high selectivity (Inhibitors with in vitro selectivity values for HDAC6 of at least 30,000 are considered to have exceptionally high selectivity toward HDAC6)	
